Patent US20250276972A1, “COMPOUNDS AS CASEIN KINASE INHIBITORS” (GRITSCIENCE BIOPHARMACEUTICALS CO.,LTD., priority 2020, published 2025)

Key:
CK1δ = target: T1, CK1δ (Homo sapiens, UniProt P48730); experiment: CK1δ inhibition (EC50); Bmal1-dLuc or Per2-dLuc U2OS luminescence rhythm period assay; assay type: cell-based; conditions: Table 3
T1 construct: endogenous in cells; host or cells: Bmal1-dLuc or Per2-dLuc U2OS cells
Method: Bmall-dLuc or Per2-dLuc U2OS cells were suspended in the culture medium (DMEM supplemented with 10% fetal bovine serum, 0.29 mg/mL L-glutamine, 100 units/mL penicillin, and […] streptomycin) and plated onto 96-well white solid-bottom plates at 200 μL (10,000 cells) per well. After 2 days, 100 μL of the explant medium (DMEM supplemented with 2% B27, 10 mM HEPES, 0.38 mg/mL sodium bicarbonate, 0.29 mg/mL L-glutamine, 100 units/mL penicillin, […], 0.1 mg/mL gentamicin, and 1 mM luciferin, pH 7.2) was dispensed to each well, followed by the application of 1 μL of a compound of the present application (dissolved in DMSO; final concentration was 0.7% in DMSO). The plate was covered with an optically clear film and set to microplate reader (Infinite M200, Tecan).

[1] = Intrinsic clearance in liver microsomes (mouse); assay type: in vitro ADME; conditions: Mouse liver microsomes 0.5 mg/mL, 2 μM compound, 37° C.; for microsomal CLint at 2 μM: read-out: in vitro CLint (μL/min/mg protein); for half-life at 2 μM: read-out: in vitro t1/2
Method: (§1) • 1. The master solution was prepared according to Table 5.
(§2) • 2. Three separated experiments were performed as follows. a) With NADPH: 10 μL of 20 mg/mL liver microsomes and 40 μL of 10 mM NADPH were added to the incubations. The final concentrations of microsomes and NADPH were 0.5 mg/mL and 1 mM, respectively. b) Without NADPH: 10 μL of 20 mg/mL liver microsomes and 40 μL of ultra-pure H2O were added to the incubations. The final concentration of microsomes was 0.5 mg/mL. c) Heat-inactivated microsomes without NADPH: 10 μL of 20 mg/mL heat-inactivated liver microsomes and 40 μL of ultra-pure H2O were added to the incubations. The final concentration of microsomes was 0.5 mg/mL. • 3. The reaction was started with the addition of 4 μL of 200 μM test compound solution or control compound solution at the final concentration of 2 μM and carried out at 37° C. • 4. Aliquots of 50 μL were taken from the reaction solution at 0, 15, 30, 45 and 60 min. […] Samples were centrifuged at 3, 220 g for 40 minutes. […] Data Analysis
(§3) Peak areas were determined from extracted ion chromatograms. The slope value, k, was determined by linear regression of the natural logarithm of the remaining percentage of the parent drug vs. incubation time curve.
(§4) The in vitro half-life (in vitro t1/2) was determined from the slope value:
(§5) Conversion of the in vitro t1/2 (min) into the in vitro intrinsic clearance (in vitro CLint, in μL/min/mg protein) was done using the following equation (mean of duplicate determinations): […]

[2] = Intrinsic clearance in liver microsomes (human); assay type: in vitro ADME; conditions: Human liver microsomes 0.5 mg/mL, 2 μM compound, 37° C.; for microsomal CLint at 2 μM: read-out: in vitro CLint (μL/min/mg protein); for half-life at 2 μM: read-out: in vitro t1/2
Method: as §1, §2, §3, §4, §5

wild type CK1δ = wild type CK1δ (Homo sapiens, UniProt P48730); experiment: CK1δ kinase assay (Kinase-Glo); assay type: biochemical; conditions: 10 μM ATP, 2 nM wild type CK1δ, 85 min at 25° C.
wild type CK1δ, sequence (P48730 whole entry): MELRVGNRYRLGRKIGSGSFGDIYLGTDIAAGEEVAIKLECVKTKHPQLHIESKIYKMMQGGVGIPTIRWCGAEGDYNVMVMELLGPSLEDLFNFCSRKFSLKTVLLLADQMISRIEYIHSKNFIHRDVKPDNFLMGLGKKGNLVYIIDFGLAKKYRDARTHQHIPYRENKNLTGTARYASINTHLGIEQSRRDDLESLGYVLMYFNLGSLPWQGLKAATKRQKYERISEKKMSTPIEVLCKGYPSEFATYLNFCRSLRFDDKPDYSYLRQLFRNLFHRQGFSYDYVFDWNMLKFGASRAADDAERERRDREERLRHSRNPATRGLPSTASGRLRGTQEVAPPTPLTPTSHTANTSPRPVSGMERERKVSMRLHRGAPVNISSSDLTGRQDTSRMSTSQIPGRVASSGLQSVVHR
Method: The reaction mixture was incubated for 85 min at 25° C.; detection was carried out as described for the Kinase-Glo Assay (Promega). Luminescent output was measured on the Perkin Elmer Envision plate reader (PerkinElmer, Waltham, MA).

T1 sequence (P48730 whole entry): as above

Row | EC50 (CK1δ) | microsomal CLint at 2 μM [1] | half-life at 2 μM [1] | microsomal CLint at 2 μM [2] | half-life at 2 μM [2] | IC50 (wild type CK1δ) | SMILES
1 | 4500 nM | 10 µL/min/mg | 138 min | 3.74 µL/min/mg | 370 min |  | CC(=O)N1CCn2nc(-c3ccc(F)cc3)c(-c3ccnc(NCC(F)(F)F)c3)c2C1 [Compound I-96, 1-(2-(4-fluorophenyl)-3-(2-((2,2,2-trifluoroethyl)amino)pyridin-4-yl)-6,7-dihydropyrazolo [1,5-a]pyrazin-5(4H)-yl)ethan-1-one]
2 |  |  |  |  |  | 28900 nM | CC(=O)N1CCn2nc(-c3ccc(F)cc3)c(-c3cc(N)ncn3)c2C1 [Compound I-63, 1-(3-(6-aminopyrimidin-4-yl)-2-(4-fluorophenyl)-6,7-dihydropyrazolo[1,5-a]pyrazin-5(4H)-yl)ethan-1-one]
3 | 300 nM |  |  |  |  | 37.4 nM | COc1ccc(/C=C/C(=O)Nc2cc(-c3c(-c4ccc(F)cc4)nn4c3CN(C(C)=O)CC4)ccn2)c(OC)c1 [Compound I-69, (E)-N-(4-(5-acetyl-2-(4-fluorophonyl)-4,5,6,7-tetrahydropyrazolo[1,5-a]pyrazin-3-yl)pyridin-2-yl)-3-(2,4-dimethoxyphenyl) acrylamide]
4 | 500 nM | 1040 µL/min/mg | 1.33 min | 274 µL/min/mg | 5.06 min |  | CC(=O)Nc1cc(-c2c(-c3ccc(F)cc3)nn3c2CN(C2CCC2)CC3)ccn1 [Compound I-33, N-(4-(5-cyclobutyl-2-(4-fluorophenyl)-4,5,6,7-tetrahydropyrazolo[1,5-a]pyrazin-3-yl)pyridin-2-yl)acetamide]
5 | 500 nM | 679 µL/min/mg | 2.04 min | 49.8 µL/min/mg | 27.8 min |  | CCC(=O)Nc1cc(-c2c(-c3ccc(F)cc3)nn3c2CN(C)CC3)ccn1 [Compound I-103, N-(4-(2-(4-fluorophenyl)-5-methyl-4,5,6,7-tetrahydropyrazolo[1,5-a]pyrazin-3-yl)pyridin-2-yl)propionamide]
6 | 7400 nM |  |  |  |  | 1030 nM | Cc1cc(-c2c(-c3ccc(F)cc3)nn3c2CN(C(=O)CCN(C)C)CC3)ccn1 [Compound I-6, 3-(dimethylamino)-1-(2-(4-fluorophenyl)-3-(2-methylpyridin-4-yl)-6,7-dihydropyrazolo[1,5-a]pyrazin-5(4H)-yl)propan-1-one]
7 |  | 43.4 µL/min/mg | 31.9 min | 12.4 µL/min/mg | 112 min |  | Cc1cc(-c2c(-c3ccc(F)cc3)nn3c2CN(Cc2ncccn2)CC3)ccn1 [Compound I-9, 2-(4-fluorophenyl)-3-(2-methylpyridin-4-y)-5-(pyrimidin-2-ylmethyl)-4,5,6,7-tetrahydropyrazolo[1,5-a]pyrazine]
8 | 700 nM | 665 µL/min/mg | 2.09 min | 94.3 µL/min/mg | 14.7 min |  | CN1CCn2nc(-c3ccc(F)cc3)c(-c3ccnc(NC(=O)C4CC4)c3)c2C1 [Compound I-89, N-(4-(2-(4-fluorophenyl)-5-methyl-4,5,6,7-tetrahydropyrazolo[1,5-a]pyrazin-3-yl)pyridin-2-yl)cyclopropanecarboxamide]
9 | 2000 nM | 152 µL/min/mg | 9.14 min | 25.2 µL/min/mg | 55 min |  | CC(=O)N1CCn2nc(-c3ccc(F)cc3)c(-c3ccnc(NC(=O)C4(c5ccc(F)cc5)CC4)c3)c2C1 [Compound I-77, N-(4-(5-acetyl-2-(4-fluorophenyl)-4,5,6,7-tetrahydropyrazolo[1,5-a]pyrazin-3-yl)pyridin-2-yl)-1-(4-fluorophenyl)cyclopropane-1-carboxamide]
10 | 100 nM | 552 µL/min/mg | 2.51 min | 112 µL/min/mg | 12.3 min |  | CN1CCn2nc(-c3ccc(F)cc3)c(-c3ccnc(NC(=O)Cc4ccc(F)cc4)c3)c2C1 [Compound I-80, 2-(4-fluorophenyl)-N-(4-(2-(4-fluorophenyl)-5-methyl-4,5,6,7-tetrahydropyrazolo [1,5-a]pyrazin-3-yl)pyridin-2-yl)acetamide]
11 | 400 nM |  |  |  |  | 364 nM | CS(=O)(=O)N1CCn2nc(-c3ccc(F)cc3)c(-c3ccnc(N)n3)c2C1 [Compound I-21, 4-(2-(4-fluorophenyl)-5-(methylsulfonyl)-4,5,6,7-tetrahydropyrazolo[1,5-a]pyrazin-3-yl)pyrimidin-2-amine.]
12 | 700 nM |  |  |  |  | 334 nM | Nc1cc(-c2nn3c(c2-c2ccc(F)cc2)C(=O)NCC3)ccn1 [Compound I-64, 2-(2-aminopyridin-4-yl)-3-(4-fluorophenyl)-6,7-dihydropyrazolo[1,5-a]pyrazin-4(5H)-one]
13 | 600 nM | 465 µL/min/mg | 2.98 min | 68.2 µL/min/mg | 20.3 min |  | CCC(C)C(=O)Nc1cc(-c2c(-c3ccc(F)cc3)nn3c2CN(C)CC3)ccn1 (centres unmarked) [Compound I-100, N-(4-(2-(4-fluorophenyl)-5-methyl-4,5,6,7-tetrahydropyrazolo[1,5-a]pyrazin-3-yl)pyridin-2-yl)-2-methylbutanamide]
14 | 700 nM | 611 µL/min/mg | 2.27 min | 29.9 µL/min/mg | 46.4 min |  | CC(C)C(=O)Nc1cc(-c2c(-c3ccc(F)cc3)nn3c2CN(C)CC3)ccn1 [Compound I-102, N-(4-(2-(4-fluorophenyl)-5-methyl-4,5,6,7-tetrahydropyrazolo[1,5-a]pyrazin-3-yl)pyridin-2-yl)isobutyramide]
15 | 800 nM | 20.5 µL/min/mg | 67.5 min | 4.98 µL/min/mg | 278 min |  | CC(=O)Nc1cc(-c2c(-c3ccc(F)cc3)nn3c2CN(C2CC(O)C2)CC3)ccn1 (centres unmarked) [Compound I-44, N-(4-(2-(4-fluorophenyl)-5-(3-hydroxycyclobutyl)-4,5,6,7-tetrahydropyrazolo[1,5-a]pyrazin-3-yl)pyridin-2-yl)acetamide]
16 | 700 nM | 532 µL/min/mg | 2.61 min | 52.5 µL/min/mg | 26.4 min |  | COCCN1CCn2nc(-c3ccc(F)cc3)c(-c3ccnc(NC(C)=O)c3)c2C1 [Compound I-40, N-(4-(2-(4-fluorophenyl)-5-(2-methoxyethyl)-4,5,6.7-tetrahydropyrazolo[1,5-a]pyrazin-3-yl)pyridin-2-yl)acetamide]
17 | 100 nM | 453 µL/min/mg | 3.06 min | 16.5 µL/min/mg | 84.1 min |  | CC(=O)N1CCn2nc(-c3ccc(F)cc3)c(-c3ccnc(NC(=O)C(C)c4ccc(F)cc4)c3)c2C1 (centres unmarked) [Compound I-82, N-(4-(5-acetyl-2-(4-fluorophenyl)-4,5,6,7-tetrahydropyrazolo[1,5-a]pyrazin-3-yl)pyridin-2-yl)-2-(4-fluorophenyl)propanamide]
18 | 400 nM | 975 µL/min/mg | 1.42 min | 47.4 µL/min/mg | 29.2 min |  | CC(=O)Nc1cc(-c2c(-c3ccc(F)cc3)nn3c2CN(CCF)CC3)ccn1 [Compound I-42, N-(4-(5-(2-fluoroethyl)-2-(4-fluorophenyl)-4,5,6,7-tetrahydropyrazolo[1,5-a]pyrazin-3-yl)pyridin-2-yl)acetamide]
19 |  |  |  |  |  | 1790 nM | [2H]C([2H])([2H])c1cc(-c2c(-c3ccc(F)cc3)nn3c2CN(C(=O)CCN(C)C)CC3)ccn1 [Compound I-134, 3-(dimethylamino)-1-(2-(4-fluorophenyl)-3-(2-(methyl-d3)pyridin-4-yl)-6,7-dihydropyrazolo[1,5-a]pyrazin-5(4H)-yl)propan-1-one]
